Experimental data as given in US20140066475A1, “Method For Treating Pruritus” (Euro-Celtique S.A., priority 2012, published 2014).
Where a name gives a salt, the structure may show the parent alone. Marks after values point to notes of the source that are not given here.

Tests used:
adult male CD-1 mice = assay: In vivo itch response assay (Compound 48/80-induced scratching); settings: for Effect on scratch response: given 20 min before pruritogen Compound 48/80
Protocol: In Vivo Model and Procedures:
An in vivo model was devised and implemented to evaluate the antipruritic activity of compounds in mice. Compound 48/80 (Sigma Chemical), a known pruritogen in mice, was mixed in a 0.9% saline vehicle and administered to various cohorts of adult male CD-1 mice by s.c. injection at the nape of the neck at dosage levels of 12.5, 25, 50 and 100 μg. The saline vehicle alone was used as a control. The mice were monitored visually and scratching bouts were counted over the ensuing 30 minutes.
Next, test benzomorphan Compound #1 (see Examples 1 and 2 above) was given in various doses (Table 3 below) in the rear flank 20 minutes prior to pruritogen injection in the same manner as the Nalfurafine.

μ-opioid receptor = μ-opioid receptor (Homo sapiens, UniProt P35372); assay: μ-opioid receptor [35S]GTPγS functional assay; format: biochemical
Chain of μ-opioid receptor (P35372 whole entry, species assumed): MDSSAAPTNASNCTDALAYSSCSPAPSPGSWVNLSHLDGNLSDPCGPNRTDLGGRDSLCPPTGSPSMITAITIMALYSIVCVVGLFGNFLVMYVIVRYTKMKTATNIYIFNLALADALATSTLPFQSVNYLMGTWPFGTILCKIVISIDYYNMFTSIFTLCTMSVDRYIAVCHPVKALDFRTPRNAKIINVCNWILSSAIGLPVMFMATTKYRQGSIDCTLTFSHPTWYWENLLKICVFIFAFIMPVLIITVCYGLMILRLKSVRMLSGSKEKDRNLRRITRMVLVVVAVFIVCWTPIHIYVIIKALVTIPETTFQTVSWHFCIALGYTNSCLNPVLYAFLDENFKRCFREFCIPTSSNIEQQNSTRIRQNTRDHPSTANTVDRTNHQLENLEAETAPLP
From the text: Measures of a compound's activity at a given receptor are given by GTP Emax and GTP EC50. GTP Emax (%) is the maximal effect elicited by a compound relative to the effect elicited by a standard, known agonist compound. GTP EC50 is the concentration of a compound providing 50% of the maximal response for that compound at a given receptor. For MOR, the μ GTP Emax (%) is the maximal effect elicited by a compound relative to the effect elicited by the standard MOR agonist [D-Ala^2, N-methyl-Phe^4 Gly-ol^5]-enkephalin (a/k/a DAMGO). Generally, the μ GTP Emax (%) value measures the efficacy of a compound to treat or prevent pain or diarrhea.
μ-Opioid Receptor Functional Assay Procedures:
[^35S]GTPγS functional assays were conducted using freshly thawed μ-receptor membranes. Assay reactions were prepared by sequentially adding the following reagents to binding buffer (100 mM NaCl, 10 mM MgCl2, 20 mM HEPES, pH 7.4) on ice (final concentrations indicated): membrane protein (0.026 mg/mL), saponin ([…]), GDP ([…]) and [^35S]GTPγS (0.20 nM; NEN). […] BetaScint scintillation cocktail (Wallac, Turku, Finland) was added (50 μl/well) and plates were counted using a Packard Top-Count for 1 min/well. Data were analyzed using the sigmoidal dose-response curve fitting functions in GraphPad PRISM v. […]

kappa opioid receptor = molecular target: T1, kappa opioid receptor (Homo sapiens, UniProt P41145); assay: κ-opioid receptor [35S]GTPγS functional assay; format: biochemical; settings: relative to U69,593; read-out: GTPγS κ Emax [mean ± SEM]
T1 construct: expressed in transfected cells; host or cells: HEK-293
T1 sequence (P41145 whole entry): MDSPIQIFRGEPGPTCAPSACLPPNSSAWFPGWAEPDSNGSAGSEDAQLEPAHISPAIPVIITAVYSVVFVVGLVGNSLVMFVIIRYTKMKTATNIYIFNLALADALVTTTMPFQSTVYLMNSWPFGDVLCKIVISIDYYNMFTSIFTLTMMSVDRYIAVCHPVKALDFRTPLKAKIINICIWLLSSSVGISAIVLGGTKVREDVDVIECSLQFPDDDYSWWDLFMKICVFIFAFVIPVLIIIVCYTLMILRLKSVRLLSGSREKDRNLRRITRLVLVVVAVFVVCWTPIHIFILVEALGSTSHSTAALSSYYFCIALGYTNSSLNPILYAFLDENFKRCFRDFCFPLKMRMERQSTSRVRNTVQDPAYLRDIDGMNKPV
Protocol: Similarly for KOR, the κ GTP Emax (%) is the maximal effect elicited by a compound relative to the effect elicited by the known κ-agonist, U69,593.
κ-Opioid Receptor Functional Assay Procedures:
Functional [^35S]GTPγS binding assays were conducted as follows. Kappa opioid receptor membrane solution was prepared by sequentially adding final concentrations of 0.026 μg/μl kappa membrane protein (in-house), 10 μg/mL saponin, 3 μM GDP and 0.20 nM [^35S]GTPγS to binding buffer (100 mM NaCl, 10 mM MgCl2, 20 mM HEPES, pH 7.4) on ice. The prepared membrane solution (190 μl/well) was transferred to 96-shallow well polypropylene plates containing 10 μl of 20× concentrated stock solutions of agonist prepared in DMSO. Plates were incubated for 30 min at a temperature of about 25° C. with shaking. Reactions were terminated by rapid filtration onto 96-well Unifilter GF/B filter plates (Packard) using a 96-well tissue harvester (Packard) and followed by three filtration washes with 200 μl ice-cold […] (10 mM NaH2PO4, 10 mM Na2HPO4, pH 7.4). Filter plates were subsequently dried at 50° C. for 2-3 hours. Fifty μl/well scintillation cocktail (MicroScint20, Packard) was added and plates were counted in a Packard Top-Count for 1 min/well.

Row | Compound | Total # Scratching Bouts in 30 mins (mean ± S.E.M.) (adult male CD-1 mice; 0.04 mg/kg s.c. 20 min before Compound 48/80 (0.5 mg/kg)) | Effect on scratch response (adult male CD-1 mice) | EC50 (μ-opioid receptor) | Emax (μ-opioid receptor; relative to DAMGO, read-out: GTPγS μ Emax [mean ± SEM]) | Emax (kappa opioid receptor) | Total # Scratching Bouts in 30 mins (mean ± S.E.M.) (adult male CD-1 mice; 3 mg/kg in rear flank 20 min before Compound 48/80 (0.5 mg/kg)) | Total # Scratching Bouts in 30 mins (mean ± S.E.M.) (adult male CD-1 mice; 10 mg/kg in rear flank 20 min before Compound 48/80 (0.5 mg/kg)) | Total # Scratching Bouts in 30 mins (mean ± S.E.M.) (adult male CD-1 mice; 30 mg/kg in rear flank 20 min before Compound 48/80 (0.5 mg/kg))
1 | CN(C(=O)/C=C/c1ccoc1)[C@@H]1CC[C@@]2(O)[C@H]3Cc4ccc(O)c5c4[C@@]2(CCN3CC2CC2)[C@H]1O5 [Nalfurafine, Nalfurafine HCl, reference compound] | 25.6 ± 7.92^d | dose dependent reduction in scratch response |  |  |  |  |  | 
2 | C=CC[N+]1(C)CCC2(C)c3cc(O)ccc3C[C@@H]1[C@@H]2C.[I-] (stereo partly drawn) [Compound #1] |  | alleviated pruritus by reducing the mean number of scratching bouts | > 20 µM | 3.67 ± 1.33% | 27.3 ± 3.38% | 155.8 ± 13.73^a | 129.4 ± 16.18^b | 70.8 ± 19.74^c
